Assay results as given in the supplement of paper PMC10307832.

Tests used:
Assay in all cases: relative viability (nuclei count vs DMSO), 5 days (fraction); higher = more cells survive
[1] = compound: CC[C@@H](C)CNCC(=O)N1CCC2=C([C@@H]1COC3=CC=CC(=C3)C)C=CS2 [RU-SKI 43] + CC1(C)CCC(c2ccc(Cl)cc2)=C(CN2CCN(c3ccc(C(=O)NS(=O)(=O)c4ccc(N[C@H](CCN5CCOCC5)CSc5ccccc5)c(S(=O)(=O)C(F)(F)F)c4)cc3)CC2)C1 [Navitoclax] (partner 0.5 µM)
In short: (§1)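 Relative viability divides the nuclei count in treated wells by that in vehicle wells. Lung cancer cell lines were seeded in 1536-well plates, dosed by pin tool the next day, and fixed and stained after 5 days in one step with final 0.05% Triton X-100, 1% formaldehyde and 1 ug/ml Hoechst. Dosing was a single drug or a fixed anchor-drug dose plus five library-drug doses (not always all listed) in √10 steps, and values are medians of duplicate plates imaged at 4×.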

[2] = compound: Cn1cc(-c2cnc3ccc4ccc(CS(=O)(=O)NCc5ccccn5)cc4c(=O)c3c2)cn1 [MK-8033] + CC1(C)CCC(c2ccc(Cl)cc2)=C(CN2CCN(c3ccc(C(=O)NS(=O)(=O)c4ccc(N[C@H](CCN5CCOCC5)CSc5ccccc5)c(S(=O)(=O)C(F)(F)F)c4)cc3)CC2)C1 [Navitoclax] (partner 0.5 µM)
In short: as §1

[3] = compound: Cn1cc(-c2cnc3ccc4ccc(CS(=O)(=O)NCc5ccccn5)cc4c(=O)c3c2)cn1 [MK-8033] + Cc1nc(NC(=O)N2CCC[C@H]2C(N)=O)sc1-c1ccnc(C(C)(C)C(F)(F)F)c1 [Alpelisib] (partner 2 µM)
In short: as §1

[4] = compound: Cn1cc(-c2cnc3ccc4ccc(CS(=O)(=O)NCc5ccccn5)cc4c(=O)c3c2)cn1 [MK-8033] + Cc1cc(Nc2cc(N3CCN(C)CC3)nc(Sc3ccc(NC(=O)C4CC4)cc3)n2)n[nH]1 [Tozasertib] (partner 0.1 µM)
In short: as §1

Cell Line	relative viability ([1]; first compound 0.1 µM)	relative viability ([1]; first compound 0.3162 µM)	relative viability ([1]; first compound 1 µM)	relative viability ([1]; first compound 3.162 µM)	relative viability ([1]; first compound 10 µM)	relative viability ([2]; first compound 0.02 µM)	relative viability ([2]; first compound 0.06325 µM)	relative viability ([2]; first compound 0.2 µM)	relative viability ([2]; first compound 0.6325 µM)	relative viability ([2]; first compound 2 µM)	relative viability ([3]; first compound 0.02 µM)	relative viability ([3]; first compound 0.06325 µM)	relative viability ([3]; first compound 0.2 µM)	relative viability ([3]; first compound 0.6325 µM)	relative viability ([3]; first compound 2 µM)	relative viability ([4]; first compound 0.02 µM)	relative viability ([4]; first compound 0.06325 µM)	relative viability ([4]; first compound 0.2 µM)	relative viability ([4]; first compound 0.6325 µM)	relative viability ([4]; first compound 2 µM)
NCI-H2009	1.11	1.21	1.17	1.15	1.1	1.16	1.12	1.08	1.15	1.14	1.13	1.12	1.09	1.11	1.14	0.776	0.703	0.694	0.707	0.737
NCI-H2023	1.01	1.3	1.08	1.09	0.977	1.08	0.881	0.933	0.943	0.847	0.655	0.516	0.5	0.474	0.521	0.374	0.273	0.251	0.221	0.122
NCI-H2085	1.17	1.11	1.2	1.08	1.12	1.03	1.03	1.1	1.13	1.14	0.873	0.936	0.925	0.823	0.971	0.812	0.708	0.73	0.841	0.593
NCI-H2087	1.05	0.94	0.943	0.911	0.998	1.1	0.877	0.916	1	1.05	1.15	1.05	1.05	1.05	1	0.241	0.266	0.237	0.246	0.247
NCI-H2126	0.776	0.863	0.875	0.875	0.862	0.836	0.838	0.861	0.832	0.827	0.749	0.731	0.763	0.772	0.702	0.773	0.749	0.772	0.841	0.79
NCI-H2170	0.499	0.64	0.643	0.625	0.58	0.559	0.55	0.612	0.586	0.597	0.652	0.758	0.691	0.773	0.772	0.662	0.702	0.634	0.695	0.628
NCI-H2228	0.91	1.3	0.995	1.25	0.987	1.37	0.876	0.754	0.54	0.839	0.815	0.551	0.629	0.768	0.841	0.199	0.214	0.168	0.253	0.214
NCI-H2347	0.718	0.836	0.904	0.424	0.7	0.844	0.741	0.779	0.827	0.737	1.05	0.991	1.02	1.03	0.975	0.545	0.574	0.584	0.552	0.436
